Measurements published in patent publication US6489297B1, “Vasoactive intestinal peptide analogs” (Dabur Research Foundation, priority 2000, dated 2002).
Where a SMILES comes first, the peptide text is derived from it. [ ]: non-standard residue; d: D form. dPhe(4-Cl) = N[C@H](Cc1ccc(Cl)cc1)C(=O)O; Dpg = CCCC(N)(CCC)C(=O)O; Aib = CC(C)(N)C(=O)O

Experiments:
Format in all cases: cell-based, human
Conditions in all cases: 72 hours
[1] = tested on: PA-1 (ovary); experiment: MTT cytotoxicity assay, PA-1 cells
Protocol: (§1) The cytotoxic activity of synthesized peptides was tested on […] human tumor cell lines namely PA-1 (ovary), SW620 (colon) HuTu80 (duodenum), L132 (lung), U87MG (glioblastoma), KB (oral), MIAPaCa2(pancreas), A549(non small cell lung) and HT-29(colon). The tumor cells were collected at exponential growth phase and resuspended in medium (1.5×10^6 cells/ml in RPMI 1640 containing 10% FBS). 150 μl of medium was added to the wells of a 96-well tissue culture plate (Nunc, Denmark) followed by 30 μl of cell suspension. The plate was left in incubator (37° C., 5% CO2) overnight. 20 μl of the peptide (100 pM to 1 uM concentration) was added to marked wells of the 96-well plate. Each concentration was plated in triplicates. 20 μl of medium alone was added to control wells while wells without cells served as blanks. A total volume of 200 μl was ensured in each well and plate was left in incubator (37° C., 5% CO2). After 72 hours of incubation an MTT assay was performed and percentage cytotoxicity was calculated with respect to control cells. Following Tables show the maximum cytotoxicity achieved on various cell lines.

[2] = tested on: L132 (lung); experiment: MTT cytotoxicity assay, L132 cells
Protocol: as §1

[3] = tested on: SW620 (colon); experiment: MTT cytotoxicity assay, SW620 cells
Protocol: as §1

[4] = tested on: MIAPaCa2(pancreas); experiment: MTT cytotoxicity assay, MIAPaCa2 cells
Protocol: as §1

[5] = tested on: KB (oral); experiment: MTT cytotoxicity assay, KB cells
Protocol: as §1

[6] = tested on: HT-29(colon); experiment: MTT cytotoxicity assay, HT-29 cells
Protocol: as §1

[7] = tested on: U87MG (glioblastoma); experiment: MTT cytotoxicity assay, U87MG cells
Protocol: as §1

[8] = tested on: A549(non small cell lung); experiment: MTT cytotoxicity assay, A549 cells
Protocol: as §1

[9] = tested on: HuTu80 (duodenum); experiment: MTT cytotoxicity assay, HuTu80 cells
Protocol: as §1

CC[C@H](C)[C@H](NC(=O)[C@H](CO)NC(=O)[C@H](CC(N)=O)NC(=O)[C@H](CC(C)C)NC(=O)[C@H](Cc1ccc(O)cc1)NC(=O)[C@H](CCCCN)NC(=O)[C@H](CCCCN)NC(=O)[C@@H](NC(=O)[C@H](C)NC(=O)[C@H](CC(C)C)NC(=O)[C@H](CCC(N)=O)NC(=O)[C@H](CCCCN)NC(=O)[C@H](CCCNC(=N)N)NC(=O)[C@H](CC(C)C)NC(=O)[C@H](CCCNC(=N)N)NC(=O)[C@@H](NC(=O)[C@H](Cc1ccc(O)cc1)NC(=O)[C@H](CC(N)=O)NC(=O)[C@H](CC(=O)O)NC(=O)[C@@H](NC(=O)[C@@H](Cc1ccc(Cl)cc1)NC(=O)[C@@H](NC(=O)C(C)(C)NC(=O)[C@H](CC(=O)O)NC(=O)[C@H](CO)NC(=O)[C@@H](N)Cc1c[nH]cn1)C(C)C)[C@@H](C)O)[C@@H](C)O)C(C)C)C(=O)N[C@@H](CC(C)C)C(=O)N[C@@H](CC(N)=O)C(N)=O [SEQ ID NO: 2] (H-HSD[Aib]V[dPhe(4-Cl)]TDNYTRLRKQLAVKKYLNSILN-NH2)
Percentage cytotoxicity ([1]; PA1, 100 pM): 16 ± 3.3%
Percentage cytotoxicity ([1]; PA1, 1 nM): 30.0 ± 6.7%
Percentage cytotoxicity ([1]; PA1, 10 nM): 28.9 ± 5.5%
Percentage cytotoxicity ([1]; PA1, 100 nM): 18.9 ± 4.2%
Percentage cytotoxicity ([1]; PA1, 1 μM): 16.5 ± 3.4%
Percentage cytotoxicity ([2]; L132, 100 pM): 18 ± 2.3%
Percentage cytotoxicity ([2]; L132, 1 nM): 28 ± 4.5%
Percentage cytotoxicity ([2]; L132, 10 nM): 30.9 ± 7.0%
Percentage cytotoxicity ([2]; L132, 100 nM): 18.9 ± 5.0%
Percentage cytotoxicity ([2]; L132, 1 μM): 15.9 ± 7.5%
Percentage cytotoxicity ([3]; SW620, 100 pM): 16.9 ± 4.5%
Percentage cytotoxicity ([3]; SW620, 1 nM): 28 ± 6.6%
Percentage cytotoxicity ([3]; SW620, 10 nM): 30 ± 4.5%
Percentage cytotoxicity ([3]; SW620, 100 nM): 23 ± 3.8%
Percentage cytotoxicity ([3]; SW620, 1 μM): 18.5 ± 5.1%
Percentage cytotoxicity ([4]; MIAPaCa2, 100 pM): 20 ± 6.5%
Percentage cytotoxicity ([4]; MIAPaCa2, 1 nM): 31 ± 5.0%
Percentage cytotoxicity ([4]; MIAPaCa2, 10 nM): 35 ± 3.5%
Percentage cytotoxicity ([4]; MIAPaCa2, 100 nM): 32 ± 4.5%
Percentage cytotoxicity ([4]; MIAPaCa2, 1 μM): 36 ± 0.5%
Percentage cytotoxicity ([5]; 100 pM): 47 ± 8.5%
Percentage cytotoxicity ([5]; 1 nM): 42 ± 8.0%
Percentage cytotoxicity ([5]; 10 nM): 34 ± 6.0%
Percentage cytotoxicity ([5]; 100 nM): 37 ± 5.0%
Percentage cytotoxicity ([5]; 1 μM): 43 ± 0.5%
Percentage cytotoxicity ([6]; HT29, 100 pM): 26 ± 5.5%
Percentage cytotoxicity ([6]; HT29, 1 nM): 25 ± 4.5%
Percentage cytotoxicity ([6]; HT29, 10 nM): 25 ± 4.5%
Percentage cytotoxicity ([6]; HT29, 100 nM): 30 ± 5.8%
Percentage cytotoxicity ([6]; HT29, 1 μM): 38 ± 5.5%
Percentage cytotoxicity ([7]; 100 pM): 10.5 ± 4.5%
Percentage cytotoxicity ([7]; 1 nM): 12 ± 7.6%
Percentage cytotoxicity ([7]; 10 nM): 28.9 ± 5.6%
Percentage cytotoxicity ([7]; 100 nM): 19.0 ± 7.0%
Percentage cytotoxicity ([7]; 1 μM): 14 ± 4.5%
Percentage cytotoxicity ([8]; A549, 100 pM): 16 ± 5.5%
Percentage cytotoxicity ([8]; A549, 1 nM): 19 ± 4.5%
Percentage cytotoxicity ([8]; A549, 10 nM): 21 ± 5.5%
Percentage cytotoxicity ([8]; A549, 100 nM): 41 ± 6.0%
Percentage cytotoxicity ([8]; A549, 1 μM): 45 ± 5.5%
Percentage cytotoxicity ([9]; HuTu80, 100 pM): 10 ± 3.5%
Percentage cytotoxicity ([9]; HuTu80, 1 nM): 20 ± 5.5%
Percentage cytotoxicity ([9]; HuTu80, 10 nM): 18 ± 4.5%
Percentage cytotoxicity ([9]; HuTu80, 100 nM): 24 ± 5.6%
Percentage cytotoxicity ([9]; HuTu80, 1 μM): 39 ± 4.5%

CCCC(CCC)(NC(=O)[C@H](CCC(N)=O)NC(=O)[C@H](CCCCN)NC(=O)[C@H](CCCNC(=N)N)NC(=O)[C@H](CC(C)C)NC(=O)[C@H](CCCNC(=N)N)NC(=O)[C@@H](NC(=O)[C@H](Cc1ccc(O)cc1)NC(=O)[C@H](CC(N)=O)NC(=O)[C@H](CC(=O)O)NC(=O)[C@@H](NC(=O)[C@H](Cc1ccccc1)NC(=O)[C@@H](NC(=O)C(C)(C)NC(=O)[C@H](CC(=O)O)NC(=O)[C@H](CO)NC(=O)[C@@H](N)Cc1c[nH]cn1)C(C)C)[C@@H](C)O)[C@@H](C)O)C(=O)N[C@@H](C)C(=O)N[C@H](C(=O)N[C@@H](CCCCN)C(=O)N[C@@H](CCCCN)C(=O)N[C@@H](Cc1ccc(O)cc1)C(=O)N[C@@H](CC(C)C)C(=O)N[C@@H](CC(N)=O)C(=O)N[C@@H](CO)C(=O)N[C@H](C(=O)N[C@@H](CC(C)C)C(=O)N[C@@H](CC(N)=O)C(N)=O)[C@@H](C)CC)C(C)C [SEQ ID NO: 9, His-Ser-Asp-Aib-Val-Phe-Thr-Asp-Asn-Tyr-Thr-Arg-Leu-Arg-Lys-Gln-Dpg-Ala-Val-Lys-Lys-Tyr-Leu-Asn-Ser-Ile-Leu-Asn-NH2] (H-HSD[Aib]VFTDNYTRLRKQ[Dpg]AVKKYLNSILN-NH2)
Percentage cytotoxicity ([1]; PA1, 100 pM): 15.5 ± 3.3%
Percentage cytotoxicity ([1]; PA1, 1 nM): 27.8 ± 4.3%
Percentage cytotoxicity ([1]; PA1, 10 nM): 25.6 ± 4.5%
Percentage cytotoxicity ([1]; PA1, 100 nM): 17.4 ± 3.2%
Percentage cytotoxicity ([1]; PA1, 1 μM): 15.1 ± 2.3%
Percentage cytotoxicity ([2]; L132, 100 pM): 17 ± 2.3%
Percentage cytotoxicity ([2]; L132, 1 nM): 20 ± 0.0%
Percentage cytotoxicity ([2]; L132, 10 nM): 18.9 ± 6.0%
Percentage cytotoxicity ([2]; L132, 100 nM): 17.5 ± 5.5%
Percentage cytotoxicity ([2]; L132, 1 μM): 13.6 ± 5.6%
Percentage cytotoxicity ([3]; SW620, 100 pM): 15.9 ± 4.5%
Percentage cytotoxicity ([3]; SW620, 1 nM): 28 ± 5.0%
Percentage cytotoxicity ([3]; SW620, 10 nM): 27 ± 3.4%
Percentage cytotoxicity ([3]; SW620, 100 nM): 21 ± 3.6%
Percentage cytotoxicity ([3]; SW620, 1 μM): 16.7 ± 4.1%
Percentage cytotoxicity ([5]; 100 pM): 13 ± 5.0%
Percentage cytotoxicity ([5]; 1 nM): 21.5 ± 4.5%
Percentage cytotoxicity ([5]; 10 nM): 16.7 ± 3.2%
Percentage cytotoxicity ([5]; 100 nM): 16.7 ± 5.1%
Percentage cytotoxicity ([5]; 1 μM): 10.5 ± 6.5%
Percentage cytotoxicity ([7]; 100 pM): 11.5 ± 5.0%
Percentage cytotoxicity ([7]; 1 nM): 13.7 ± 3.6%
Percentage cytotoxicity ([7]; 10 nM): 26.7 ± 3.5%
Percentage cytotoxicity ([7]; 100 nM): 18.9 ± 6.5%
Percentage cytotoxicity ([7]; 1 μM): 12.5 ± 6.5%
Percentage cytotoxicity ([9]; HuTu80, 100 pM): 14.6 ± 2.7%
Percentage cytotoxicity ([9]; HuTu80, 1 nM): 28.5 ± 3.2%
Percentage cytotoxicity ([9]; HuTu80, 10 nM): 26 ± 5.5%
Percentage cytotoxicity ([9]; HuTu80, 100 nM): 23 ± 6.0%
Percentage cytotoxicity ([9]; HuTu80, 1 μM): 14.6 ± 5.1%

CCCC(CCC)(NC(=O)[C@H](CCC(N)=O)NC(=O)[C@H](CCCCN)NC(=O)[C@H](CCCNC(=N)N)NC(=O)[C@H](CC(C)C)NC(=O)[C@H](CCCNC(=N)N)NC(=O)[C@@H](NC(=O)[C@H](Cc1ccc(O)cc1)NC(=O)[C@H](CC(N)=O)NC(=O)[C@H](CC(=O)O)NC(=O)[C@@H](NC(=O)[C@@H](Cc1ccc(Cl)cc1)NC(=O)[C@@H](NC(=O)C(C)(C)NC(=O)[C@H](CC(=O)O)NC(=O)[C@H](CO)NC(=O)[C@@H](N)Cc1c[nH]cn1)C(C)C)[C@@H](C)O)[C@@H](C)O)C(=O)N[C@@H](C)C(=O)N[C@H](C(=O)N[C@@H](CCCCN)C(=O)N[C@@H](CCCCN)C(=O)N[C@@H](Cc1ccc(O)cc1)C(=O)N[C@@H](CC(C)C)C(=O)N[C@@H](CC(N)=O)C(=O)N[C@@H](CO)C(=O)N[C@H](C(=O)N[C@@H](CC(C)C)C(=O)N[C@@H](CC(N)=O)C(N)=O)[C@@H](C)CC)C(C)C [SEQ ID NO: 10, His-Ser-Asp-Aib-Val-4-Cl-D-Phe-Thr-Asp-Asn-Tyr-Thr-Arg-Leu-Arg-Lys-Gln-Dpg-Ala-Val-Lys-Lys-Tyr-Leu-Asn-Ser-Ile-Leu-Asn-NH2] (H-HSD[Aib]V[dPhe(4-Cl)]TDNYTRLRKQ[Dpg]AVKKYLNSILN-NH2)
Percentage cytotoxicity ([1]; PA1, 100 pM): 28 ± 0.0%
Percentage cytotoxicity ([1]; PA1, 1 nM): 31 ± 6.0%
Percentage cytotoxicity ([1]; PA1, 10 nM): 26 ± 3.0%
Percentage cytotoxicity ([1]; PA1, 100 nM): 25 ± 5.0%
Percentage cytotoxicity ([1]; PA1, 1 μM): 23 ± 6.5%
Percentage cytotoxicity ([2]; L132, 100 pM): 15 ± 7.0%
Percentage cytotoxicity ([2]; L132, 1 nM): 28 ± 6.0%
Percentage cytotoxicity ([2]; L132, 10 nM): 31 ± 6.0%
Percentage cytotoxicity ([2]; L132, 100 nM): 29 ± 5.5%
Percentage cytotoxicity ([2]; L132, 1 μM): 17 ± 5.0%
Percentage cytotoxicity ([3]; SW620, 100 pM): 17 ± 4.0%
Percentage cytotoxicity ([3]; SW620, 1 nM): 30 ± 6.5%
Percentage cytotoxicity ([3]; SW620, 10 nM): 29 ± 5.0%
Percentage cytotoxicity ([3]; SW620, 100 nM): 24 ± 7.3%
Percentage cytotoxicity ([3]; SW620, 1 μM): 16 ± 5.5%
Percentage cytotoxicity ([5]; 100 pM): 12 ± 8.0%
Percentage cytotoxicity ([5]; 1 nM): 32 ± 7.8%
Percentage cytotoxicity ([5]; 10 nM): 26 ± 7.8%
Percentage cytotoxicity ([5]; 100 nM): 27 ± 6.0%
Percentage cytotoxicity ([5]; 1 μM): 30 ± 5.0%
Percentage cytotoxicity ([7]; 100 pM): 12 ± 5.0%
Percentage cytotoxicity ([7]; 1 nM): 16 ± 7.8%
Percentage cytotoxicity ([7]; 10 nM): 30.1 ± 4.0%
Percentage cytotoxicity ([7]; 100 nM): 29 ± 7.0%
Percentage cytotoxicity ([7]; 1 μM): 29 ± 4.0%
Percentage cytotoxicity ([9]; HuTu80, 100 pM): 15 ± 7.8%
Percentage cytotoxicity ([9]; HuTu80, 1 nM): 31 ± 7.0%
Percentage cytotoxicity ([9]; HuTu80, 10 nM): 28 ± 5.0%
Percentage cytotoxicity ([9]; HuTu80, 100 nM): 28 ± 8.0%
Percentage cytotoxicity ([9]; HuTu80, 1 μM): 16 ± 4.5%
